Data set [1] has as its system S. aureus ATCC 13709^A, Novobiocin and Rifampicin resistant variant. Kind of data set: Antibacterial susceptibility (MIC), NCCLS broth microdilution. It is filed as cell-based. Put shortly: (§1)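 Two-fold serial dilutions in DMSO were tested in cation-adjusted Mueller Hinton broth, following NCCLS M26-A, at 5×10^5 c.f.u./mL with 1.25% DMSO final, in duplicate. Plates were incubated at 37 °C for 18 h. MIC was the lowest concentration inhibiting visible growth.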
Background: Broth dilution looks for growth in wells or tubes with falling amounts of substance.

A further data set relates to S. aureus ATCC 29213. Described as above. The format is cell-based. Conditions: for Minimum inhibitory concentration, S. aureus ATCC 29213: CAMHB, 37° C., 18 h. The procedure, abridged: as §1
Data set [2] is classed as in vitro ADME. Conditions: for % Conversion (prodrug converted to parent drug after binding to bone): 24 h incubation, 37° C.
Data set [3] relates to S. aureus ATCC 13709. Kind of data set: microbe, parasite or virus in culture. The format is cell-based. The settings on record: for Minimum inhibitory concentration, S. aureus ATCC 13709: CAMHB, 37° C., 18 h; for Antibacterial activity (in words, from Table 1): S. aureus MIC. The procedure, abridged: as §1
In data set [4] the test system is Novobiocin resistant mutant strain of S. aureus ATCC 13709. Kind of data set: Prophylactic efficacy in rat model of S. aureus bone infection. The format is in vivo. Conditions: for Measured bacterial titer, test compound: 20 mg/kg parent drug equivalent, tibia 24 h postinfection; for Prophylactic activity in rat bone infection model (in words): 20 mg/kg, 1 day or 5 days prior to infection. Put shortly:
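Female CD rats (n=5/group) received an intra-tibial injection of sodium morrhuate followed by about 2×10^7 CFU of a novobiocin-resistant S. aureus ATCC 13709 mutant. Prodrugs in saline were given as a single IV bolus at set times before infection, and moxifloxacin 10 mg/kg IV at 1 h post-infection. Tibial bacterial load (Log CFU/g bone; detection limit 2 Log) was measured at 24 h and compared by Dunnett's test.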

Data set [5] relates to S. aureus ATCC 13709. Kind of data set: microbe, parasite or virus in culture. Conditions: for MIC: Staphylococcus aureus, ATCC13709, 18 h. It is filed as cell-based.
[6] abbreviates: single intravenous bolus 1 day prior to infection.
The mark [7] stands for this setting: single intravenous bolus 5 days prior to infection.

≈ marks a conversion by molar mass, not a printed value. Where two headings read alike, the source gives them in different places. A value given as a limit tells only on which side of the number the result lay.

In the case of `CCN(CC)CC.CO[C@H]1/C=C/O[C@@]2(C)Oc3c(C)c(O)c4c(c3C2=O)C2=NC3(CCN(CC(C)C)CC3)NC2=C(NC(=O)/C(C)=C\C=C\[C@H](C)[C@H](OC(=O)CN(C)C(=O)Nc2ccc(CC(P(=O)(O)O)P(=O)(O)O)cc2)[C@@H](C)[C@@H](O)[C@@H](C)[C@H](OC(C)=O)[C@@H]1C)C4=O` [Compound 142b], the “Minimum inhibitory concentration, S. aureus ATCC 13709^A” value in data set [1] is over 128 µg/mL. In the data set on S. aureus ATCC 29213, the “Minimum inhibitory concentration, S. aureus ATCC 29213” value was 0.0625 µg/mL. Moreover, the “Release of parent rifabutin from bone powder-bound prodrug (in words)” value in data set [2] was “release significant amounts of the parent rifabutin once bound to bone powder, regardless of the presence of serum”. The “% Conversion (prodrug converted to parent drug after binding to bone)” value (“% Conversion” below) in data set [2] (50% Heat Inactivated Rat Serum) is 0.24 ± 0.04%. Besides, the “% Conversion” value in data set [2] (50% Rat Serum) was 0.22 ± 0.06%. The “% Conversion” value in data set [2] (PBS) was 0.37 ± 0.08%. Besides, in the data set on S. aureus ATCC 13709 [3], the “Minimum inhibitory concentration, S. aureus ATCC 13709” value turned out to be 0.125 µg/mL and the “Antibacterial activity (in words, from Table 1)” value was “very low MICs whether in the absence or in the presence of serum”. Further, the “Measured bacterial titer, test compound” value in data set [4] (setting [6]) is recorded as 2.14 ± 0.08 Log CFU/g of bone. In addition, the “Measured bacterial titer, test compound” value in data set [4] (setting [7]) is listed as 4.79 ± 1.40 Log CFU/g of bone. Further, in the data set with S. aureus ATCC 13709 [5], the “Minimum inhibitory concentration, ATCC 13709 + 50% Human Serum” value amounted to 0.5 µg/mL; the “Minimum inhibitory concentration, ATCC 13709 + 50% Mouse Serum” value was 0.0625 µg/mL; the “Minimum inhibitory concentration, ATCC 13709 + 50% Rat Serum” value came to 0.008 µg/mL.

As to `CCC(=O)OCOC(=O)N[C@@H](CCC(=O)NC(P(=O)(O)O)P(=O)(O)O)C(=O)N(C)CC(=O)O[C@@H]1[C@@H](C)[C@@H](O)[C@@H](C)[C@H](OC(C)=O)[C@H](C)[C@@H](OC)/C=C/O[C@@]2(C)Oc3c(C)c(O)c4c(c3C2=O)C2=NC3(CCN(CC(C)C)CC3)NC2=C(NC(=O)/C(C)=C\C=C\[C@@H]1C)C4=O` [Compound 102], the MIC in data set [1] (Staphylococcus aureus, ATCC13709, read-out: Minimum inhibitory concentration, S. aureus ATCC 13709^A) is over 128 µg/mL; in the data set on S. aureus ATCC 29213 (Staphylococcus aureus, ATCC29213, 18 h, read-out: Minimum inhibitory concentration, S. aureus ATCC 29213), 2 µg/mL (≈ 1.48 µM); in the data set on S. aureus ATCC 13709 [3] (Staphylococcus aureus, ATCC13709, 18 h, read-out: Minimum inhibitory concentration, S. aureus ATCC 13709), 4 µg/mL (≈ 2.96 µM); in the data set on S. aureus ATCC 13709 [5] (read-out: Minimum inhibitory concentration, ATCC 13709 + 50% Human Serum), 16 µg/mL; in the data set with S. aureus ATCC 13709 [5] (read-out: Minimum inhibitory concentration, ATCC 13709 + 50% Mouse Serum), 0.0625 µg/mL; with S. aureus ATCC 13709 [5] (read-out: Minimum inhibitory concentration, ATCC 13709 + 50% Rat Serum) it was 0.0156 µg/mL. For the same compound, the “Release of parent rifabutin from bone powder-bound prodrug (in words)” value in data set [2] (PBS versus serum) is listed as “regeneration is clearly accelerated by the presence of serum”. The “Measured bacterial titer, test compound” value in data set [4] (setting [6]) was 2.89 ± 1.13 Log CFU/g of bone; in data set [4] (setting [7]) it was 5.38 ± 0.83 Log CFU/g of bone. In addition, the “Prophylactic activity in rat bone infection model (in words)” value in data set [4] is “active at 1 day and display activity similar to rifabutin at 5 days”. The “Serum dependence of antibacterial activity (in words)” value in the data set on S. aureus ATCC 13709 [5] (MIC with versus without serum) is on record as “significant increase in antibacterial activity in serum”.

Consider `CO[C@H]1/C=C/O[C@@]2(C)Oc3c(C)c(O)c4c(c3C2=O)C2=NC3(CCN(CC(C)C)CC3)N(C(=O)OCc3cc(C)c(OC(=O)CCC(P(=O)(O)O)P(=O)(O)O)c(C)c3)C2=C(NC(=O)/C(C)=C\C=C\[C@H](C)[C@H](O)[C@@H](C)[C@@H](O)[C@@H](C)[C@H](OC(C)=O)[C@@H]1C)C4=O.N.N` [Compound 19], for which, in data set [1], the “Minimum inhibitory concentration, S. aureus ATCC 13709^A” value was over 128 µg/mL. The “Minimum inhibitory concentration, S. aureus ATCC 29213” value with S. aureus ATCC 29213 came out at 0.25 µg/mL. Besides, the “Release of parent rifabutin from bone powder-bound prodrug (in words)” value in data set [2] is “release significant amounts of the parent rifabutin once bound to bone powder, regardless of the presence of serum”. For the same compound, the “% Conversion” value in data set [2] (50% Heat Inactivated Rat Serum), in data set [2] (50% Rat Serum) and in data set [2] (PBS) was 0.14% throughout. Besides, the “Minimum inhibitory concentration, S. aureus ATCC 13709” value in the data set on S. aureus ATCC 13709 [3] was found to be 0.25 µg/mL. In addition, in the data set on S. aureus ATCC 13709 [3], the “Antibacterial activity (in words, from Table 1)” value was “very low MICs whether in the absence or in the presence of serum”. In addition, the results for the “Measured bacterial titer, test compound” value in data set [4] (setting [6]) and in data set [4] (setting [7]) were 2.55 ± 0.69 Log CFU/g of bone and 3.69 ± 1.45 Log CFU/g of bone, respectively. Further, the “Prophylactic activity in rat bone infection model (in words)” value in data set [4] was “active at 1 day and display activity similar to rifabutin at 5 days”. For the same compound, the “Minimum inhibitory concentration, ATCC 13709 + 50% Human Serum” value in the data set with S. aureus ATCC 13709 [5] was 0.125 µg/mL. Moreover, the “Minimum inhibitory concentration, ATCC 13709 + 50% Mouse Serum” value in the data set with S. aureus ATCC 13709 [5] was 0.0625 µg/mL. In addition, the “Minimum inhibitory concentration, ATCC 13709 + 50% Rat Serum” value with S. aureus ATCC 13709 [5] is 0.0156 µg/mL.

Values taken from US8524691B2, “Phosphonated rifamycins and uses thereof for the prevention and treatment of bone and joint infections” (The Medicines Company, priority 2008, dated 2013).
